Laboratory results reported in patent US20250251402A1, “METHODS OF DETECTING MOLECULAR AGGREGATES USING IMAGE CORRELATION SPECTROSCOPY (ICS)” (The General Hospital Corporation, priority 2022, published 2025).

Assays:
OVCA429 cells [1] = test: γH2AX immunofluorescence in OVCA429 cells (intensity, Imaris Spots, ICS TNoP and DA); assay type: cell-based
Source text: (§1) For the ICS analysis, nuclei were segmented from the DAPI channel using a watershed approach in MATLAB. Briefly, we applied a difference of gaussians for size-based feature extraction of nuclei in the image (upper gaussian σ=100, lower gaussian σ=2-5 dependent on cell size). This feature enhanced image was then binarized to create a primary mask (using the function imbinarize) and connected components under 100 pixels were removed (using the function bwareaopen). We then created a distance transform of the resulting binary image (using the function bwdist). Seed points were determined by finding the regional maximum of a gaussian filtered image, with a gaussian σ of appropriate size for seed point detection (σ×7 or 8 dependent on cell size). The seed points were applied to the distance transform, and we applied the watershed function to the resulting image to obtain masks for each nucleus (extracted using the function regionprops).
(§2) Using the nucleus masks, we performed ICS analysis on the antibody-stained channel, within size limitations for a nucleus (objects >400 and <2400 pixels). Intensity, DA and TNOP were calculated for each cell. In this analysis, since the ROI is defined by the nucleus mask (segmented from nuclear signal using DAPI staining), TNoP represents the total number of particles per nucleus, with the image area being the number of pixels in each nuclear mask.
(§3) Measurements across experiments were normalized by the control in each dataset. […] Data were plotted in Prism and statistical analysis was performed in Excel.
(§4) Imaris spots analysis were performed with Imaris 9.8 with background subtraction, using a spot size of 1 μm that was measured from the smallest distinguishable foci from the control image. For images with multiple nuclei, ImarisCell was used with the detection type “cell and vesicles”, where the nucleus in the DAPI channel was modelled as the “cell” and antibody-labeled foci were modelled as the “vesicles”. This enabled us to count the number of foci per nucleus for multiple cells. In each dataset, the automatic “quality” threshold was determined from the control image and the same threshold was used for every image in the dataset to be able to compare the outputs across datasets. Similar to the ICS analysis, only cells with an area between 400-2400 voxels were included for analysis.
(§5) All chemicals were purchased from Sigma unless otherwise noted. All drugs were purchased from Selleck Chemicals. Cells were cultured in media supplemented with 10% fetal bovine serum and 1% penicillin/streptomycin. OVCA429 were originally obtained from Dr. Michael Birrer and cultured in DMEM. SKOV3 was obtained from ATCC and cultured in RPMI. For MMS treatment, cells were incubated for 6 hours before fixation with 4% formaldehyde, whereas for treatment with PARP inhibitors, cells were incubated for 24 hours before fixation.
(§6) Cells were plated in 8-well slides (Fisher) to achieve 50% confluence overnight. Cells were then treated and fixed with 4% formaldehyde in PBS at room temperature for 10 minutes. Antibody staining was performed according to the manufacturers protocol (Cell Signaling Technologies or Abcam). Primary antibodies used were γH2AX (CST, #2577), RPA1 (CST, #2267) and RAD51 (Abcam, 63801), with Anti-rabbit IgG Fab2 Alexa Fluor 647 (CST, #4414) as the secondary fluorescent antibody. After antibody labeling, prolong gold with DAPI (CST) was added and samples were stored for up to 1 week prior to imaging. Confocal imaging was performed on an Olympus FV1000 multiphoton/confocal microscope using an Olympus XLUMPlanFL N 20× objective, NA 1.00 with chromatic correction, and 3× digital zoom. DAPI was excited with a 405 nm laser, while Alexa Fluor 647 was excited with a 635 nm laser. A multiband (DM 405/488/561/633 nm) dichroic mirror was used to direct the excitation laser and collect emission. […]

PARP1 [2] = biological target: T1, PARP1 (Homo sapiens, UniProt P09874); test: PARP1 trapping by chromatin fractionation in HT1080 cells; assay type: cell-based; details: HT1080, 100 μM veliparib vs 1 μM talazoparib
Protocol: Lysate was then pelleted by centrifugation at 14,000 g for 15 min at 4° C. Supernatant was transferred to a clean tube and total protein was determined using a BCA assay (Pierce). Protein was loaded into a NuPAGE gel (Thermo Fisher) and transferred to nitrocellulose paper (Thermo Fisher). Blocking and antibody labeling was then carried out according to the antibody manufacturer's protocol. For PAR measurements, cells were treated with TMZ for 1 hour, or 1 μM H2O2 for 10 minutes in 6-well plates. Cells were trypsinized and washed once with PBS prior to cell lysis. Western blot expression levels were quantified by inverting the red channel of an image of the blot in FIJI, subtracting the background intensity and measuring the total intensity of the lane. These values where then normalized to the control signal. […] The media was removed, and cells were scraped off the culture dish in 1 ml PBS. The cells were pelleted by centrifugation at 500 g for 4 minutes at 4° C. and the solution was removed. Pellets were resuspended in 250 μl lysis buffer (10 mM HEPES, 10 mM KCl, 1.5 mM MgCl2, 340 mM sucrose, 10% glycerol, 0.1% Triton X-100, pH 7.9, protease inhibitors (Thermo Fisher)) and incubated on ice for 10 minutes. Nuclei were separated by centrifugation at 1300 g for 5 minutes at 4° C. and the solution was collected (cytoplasm fraction). […]

SKOV3 cells [3] = test: γH2AX immunofluorescence in SKOV3 cells (intensity, Imaris Spots, ICS TNoP and DA); assay type: cell-based
Source text: as §1, §2, §3, §4, §5, §6

PARP1 [4] = biological target: T1, PARP1; details: average of previous measurements; cited from earlier work
PARP1 [5] = biological target: T1, PARP1; details: actual rate multiplied by 10^−7 for the stochastic model
Source text: ka (trap): The association constant of PARPi for PARP1. […] Values were taken as an average of previous measurements. […] Values were taken as an average of previous measurements. […] Values were taken as an average of previous measurements.
Association of PARPi to PARP1 (p.ka_trap): The association constant of each PARPi on PARP1. […] Rates were corrected to account for the interpretation of PARP1 concentration relative to DNA through multiplying the actual rate by 10^−7. This rate correction was performed for all association constants.

HCC1937 cells = test: 53BP1-mApple condensate anisotropy (homo-FRET) and intensity in HCC1937 cells; assay type: cell-based; details: HCC1937, 1 μM PARPi and 100 μM TMZ for 1 hour
Protocol: (§7) All fluorescence imaging was performed on an Olympus FV1000 multiphoton/confocal microscope. Anisotropy measurements were performed through custom modifications to the imaging system as previously described (30). Briefly, linear polarization of two photon excitation light at 910 nm (MaiTai femtosecond laser, Spectra Physics) was controlled by a glan-thompson prism and half wave plate. […] was collected in orthogonal orientations through two detectors, parallel and perpendicular to excitation polarization, through a polarizing beam splitter that replaced a dichroic mirror in the emission filter cube. The alignment and detector gain and noise were validated each imaging session through measurements of a standard slide. Images were taken with an Olympus 25× XLPlan N objective, NA 1.05, and 3× digital zoom. Confocal imaging was performed with an Olympus XLUMPlanFL N 20× objective, NA 1.00 with chromatic correction, and 3× digital zoom.
Cells were grown on 12 mm round, uncoated, sterilized glass coverslips in 24-well plates for 24 hours. Cells were treated with PARPi and 100 μM TMZ for 1 hour or 10 nM GMX1778 overnight followed by 100 μM TMZ for 1 hour. TMZ was added to stimulate new DNA damage induced condensates in the presence of PARPi or NAD″ depletion. Cells were then transferred to the microscope for anisotropy imaging. Images were analyzed in MATLAB. Nuclei were segmented through intensity thresholding and condensates were segmented through further intensity thresholding with a higher threshold. Values of segmented nuclei and condensates were determined through the regionprops function. Segmentation was corrected through area restrictions to ensure that regions of interest were isolated condensates. The thresholding parameters were consistent throughout experiments. The average intensity and anisotropy of each segmented nuclei or condensate was then calculated. Data were plotted in Prism and analysis performed in Prism or Excel.

PARP = PARP (Homo sapiens, UniProt P09874); details: HT1080, 1 μM PARPi, 500 nM fluorescent olaparib
Protocol: Cells were grown on 25 mm round, uncoated, sterilized glass coverslips in 6-well plates for 24 hours. […] Coverslips were removed from the 6-well plates, mounted onto a perfusion chamber (Warner Instruments), sealed with vacuum grease and perfused with a custom tubing setup. The chamber was then mounted onto the microscope and temperature was maintained at 37° C. using a heating pad and feedback loop. Cells were initially located using fluorescent drug or autofluorescence and allowed to temperature equilibrate on the microscope stage for at least 5 minutes. Images were acquired using the anisotropy configuration as described above. After initial images were acquired, the chamber was perfused with 10× volume of the wash media containing fluorescent drug while chamber media and excess wash media were aspirated out of the chamber with vacuum. Images were then acquired at the desired time points while correcting for any drift. Association of fluorescent drug measurements were performed through rapid addition of media containing fluorescent drug (500 nM) and immediate image acquisition.
Nuclei were segmented in MATLAB and the average nuclear intensity and anisotropy were calculated using the regionprops function. […] Values were then plotted as a function of time, with t=0 when PARPi was removed, in Prism (Graphpad) and a one phase association curve was fit to obtain the binding rate. […]

HT1080 cells = test: 53BP1-mApple condensate anisotropy and intensity in HT1080 cells; assay type: cell-based; details: HT1080, increased veliparib concentrations
Protocol: as §7
Cells were grown on 12 mm round, uncoated, sterilized glass coverslips in 24-well plates for 24 hours. Cells were treated with PARPi and 100 μM TMZ for 1 hour or 10 nM GMX1778 overnight followed by 100 μM TMZ for 1 hour. […] Images were analyzed in MATLAB. […] Values of segmented nuclei and condensates were determined through the regionprops function. […] The average intensity and anisotropy of each segmented nuclei or condensate was then calculated. […]

PARP1-DNA = PARP1-DNA (Homo sapiens, UniProt P09874); details: from previous findings; cited from earlier work
53BP1 = test: Autocorrelation (ICS DA) of 53BP1 in phenotypic screen images, cell line not specified; assay type: cell-based; details: at least one cell line of A549, WPMY-1, HepG2
Protocol: Images from the original study (8) were accessed through the Image Data Resource (32) API on the Open Microscopy environment. Nuclei were segmented using StarDist (33) on the BFP channel image. Segmented nuclei were then analyzed by image correlation spectroscopy autocorrelation (34) in the TP53BP1 channel and the average degree of aggregation (DA) was calculated. […] Active compounds were defined as having significant (p<0.05) non-zero linear regressions, either negative or positive. The activity score was determine by summing the direction of each active compound and dividing by the total number of compounds in the MoA.
We accessed the original phenotypic screen (8) images through the IDR API on the Open Microscopy server. The screen contained three different cell lines that had endogenous TP53BP1 labeled GFP as a marker protein. We first identified all the images from these three cell lines (>60,000 images in total), then segmented the nuclei of each cell using the BFP channel image. Segmented nuclear regions were then transferred to the TP53BP1 image and image autocorrelation was performed on each nucleus. The degree of aggregation (DA, a measurement of fluorophore clustering) for each nucleus was then averaged to produce an overall image 53BP1 DA that corresponded to the compound and compound concentration. The dataset contained repeats of four different doses for each compound. The activity of each compound in each cell line was then determined by fitting a linear regression to the DA as a function of compound concentration. The slope and significance versus the null hypothesis (slope equal to zero) of DA vs. concentration was then determined. Active compounds were defined as those having a significant (p<0.05) slope of DA vs. concentration.
53BP1 DA is a measure of protein labeled fluorophore clustering within the nucleus. […] Yet, given the highly characterized role of 53BP1 in the DNA damage response (9), recruitment to DNA damage response foci is likely the most prominent driver of measured activity.

OVCA429 cells [6] = test: RPA1 immunofluorescence in OVCA429 cells (Imaris Spots, ICS DA); assay type: cell-based
Source text: as §1, with “The seed points were applied to the distance transform, and we applied the watershed function to the resulting image to obtain masks for each nucleus (extracted using the function regionprops).” left out
(§8) Using the nucleus masks, we performed ICS analysis on the antibody-stained channel, within size limitations for a nucleus (objects >400 and <2400 pixels). Intensity, DA and TNOP were calculated for each cell. […]
(§9) Imaris spots analysis were performed with Imaris 9.8 with background subtraction, using a spot size of 1 μm that was measured from the smallest distinguishable foci from the control image. […] In each dataset, the automatic “quality” threshold was determined from the control image and the same threshold was used for every image in the dataset to be able to compare the outputs across datasets. […]

SKOV3 cells [7] = test: RPA1 immunofluorescence in SKOV3 cells (Imaris Spots, ICS DA); assay type: cell-based
Source text: as §1, with “The seed points were applied to the distance transform, and we applied the watershed function to the resulting image to obtain masks for each nucleus (extracted using the function regionprops).” left out
as §8, §9

OVCA429 cells [8] = test: RAD51 immunofluorescence in OVCA429 cells (Imaris Spots, ICS DA); assay type: cell-based
Source text: as §1, with “The seed points were applied to the distance transform, and we applied the watershed function to the resulting image to obtain masks for each nucleus (extracted using the function regionprops).” left out
as §8, §9

SKOV3 cells [9] = test: RAD51 immunofluorescence in SKOV3 cells (Imaris Spots, ICS DA); assay type: cell-based
Source text: as §1, §2
Imaris spots analysis were performed with Imaris 9.8 with background subtraction, using a spot size of 1 μm that was measured from the smallest distinguishable foci from the control image. For images with multiple nuclei, ImarisCell was used with the detection type “cell and vesicles”, where the nucleus in the DAPI channel was modelled as the “cell” and antibody-labeled foci were modelled as the “vesicles”. This enabled us to count the number of foci per nucleus for multiple cells. In each dataset, the automatic “quality” threshold was determined from the control image and the same threshold was used for every image in the dataset to be able to compare the outputs across datasets. […]

T1 sequence (P09874 whole entry, species assumed): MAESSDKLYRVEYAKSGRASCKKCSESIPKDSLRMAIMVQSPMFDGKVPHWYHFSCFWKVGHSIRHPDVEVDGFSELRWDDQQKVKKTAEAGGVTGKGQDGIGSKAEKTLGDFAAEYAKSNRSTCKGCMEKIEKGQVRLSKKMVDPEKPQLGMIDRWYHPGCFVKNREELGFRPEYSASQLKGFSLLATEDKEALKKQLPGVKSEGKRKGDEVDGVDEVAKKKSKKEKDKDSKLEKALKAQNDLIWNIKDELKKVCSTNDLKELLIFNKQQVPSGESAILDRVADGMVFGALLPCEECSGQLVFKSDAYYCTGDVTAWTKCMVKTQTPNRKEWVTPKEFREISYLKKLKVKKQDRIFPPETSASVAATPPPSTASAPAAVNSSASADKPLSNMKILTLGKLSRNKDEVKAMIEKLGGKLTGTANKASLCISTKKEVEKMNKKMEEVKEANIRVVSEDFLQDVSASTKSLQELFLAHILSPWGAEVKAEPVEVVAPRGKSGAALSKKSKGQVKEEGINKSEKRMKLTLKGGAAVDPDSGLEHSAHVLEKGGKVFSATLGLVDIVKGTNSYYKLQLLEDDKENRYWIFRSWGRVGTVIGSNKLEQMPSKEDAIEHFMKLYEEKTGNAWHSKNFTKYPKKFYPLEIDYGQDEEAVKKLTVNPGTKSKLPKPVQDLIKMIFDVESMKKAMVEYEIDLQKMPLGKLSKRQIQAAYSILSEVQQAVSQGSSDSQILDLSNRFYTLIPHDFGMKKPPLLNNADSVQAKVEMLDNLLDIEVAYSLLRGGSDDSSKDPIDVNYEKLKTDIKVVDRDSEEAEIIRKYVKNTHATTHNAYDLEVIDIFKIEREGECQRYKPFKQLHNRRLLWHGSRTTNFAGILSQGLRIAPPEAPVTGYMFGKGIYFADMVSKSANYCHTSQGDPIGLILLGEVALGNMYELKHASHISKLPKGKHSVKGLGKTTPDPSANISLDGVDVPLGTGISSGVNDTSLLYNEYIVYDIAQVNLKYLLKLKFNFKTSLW
Sequence of PARP (P09874 2-1014): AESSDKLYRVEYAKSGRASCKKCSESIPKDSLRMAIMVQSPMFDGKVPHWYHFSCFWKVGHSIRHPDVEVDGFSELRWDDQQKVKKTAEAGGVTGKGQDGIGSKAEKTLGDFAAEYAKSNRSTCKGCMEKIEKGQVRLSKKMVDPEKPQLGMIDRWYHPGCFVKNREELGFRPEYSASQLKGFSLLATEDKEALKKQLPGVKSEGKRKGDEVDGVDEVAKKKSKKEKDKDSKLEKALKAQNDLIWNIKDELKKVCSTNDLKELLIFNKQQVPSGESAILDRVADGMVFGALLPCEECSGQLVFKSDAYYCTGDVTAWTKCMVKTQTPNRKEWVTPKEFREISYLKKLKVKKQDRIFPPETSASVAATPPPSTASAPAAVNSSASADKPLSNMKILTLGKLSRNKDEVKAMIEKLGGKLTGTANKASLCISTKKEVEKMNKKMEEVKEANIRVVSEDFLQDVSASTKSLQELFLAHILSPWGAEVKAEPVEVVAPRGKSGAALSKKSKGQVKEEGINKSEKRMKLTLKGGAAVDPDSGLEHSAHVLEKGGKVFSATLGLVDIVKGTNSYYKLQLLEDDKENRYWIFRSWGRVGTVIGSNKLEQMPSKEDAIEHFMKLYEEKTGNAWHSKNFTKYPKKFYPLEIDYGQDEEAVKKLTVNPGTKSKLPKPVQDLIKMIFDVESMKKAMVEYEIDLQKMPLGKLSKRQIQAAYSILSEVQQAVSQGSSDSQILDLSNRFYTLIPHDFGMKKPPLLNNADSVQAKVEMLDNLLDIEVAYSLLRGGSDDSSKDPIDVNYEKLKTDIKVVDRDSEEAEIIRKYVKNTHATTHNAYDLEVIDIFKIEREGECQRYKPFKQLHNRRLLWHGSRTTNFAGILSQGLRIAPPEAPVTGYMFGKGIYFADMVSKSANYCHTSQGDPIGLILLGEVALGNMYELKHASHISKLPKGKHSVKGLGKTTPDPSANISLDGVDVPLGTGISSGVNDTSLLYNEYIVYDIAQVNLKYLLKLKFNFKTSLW
Sequence of PARP1-DNA (P09874 whole entry): as the sequence (P09874 whole entry, species assumed) above

## C[C@]1(c2nc3c(C(N)=O)cccc3[nH]2)CCCN1 [veliparib]
OVCA429 cells [1]; OVCA429
  ICS DA of γH2AX, dose dependence: full dose dependent increases in γH2AX clustering
  Imaris Spots analysis of γH2AX, dose dependence: failed to capture the full dose dependent DNA damage
OVCA429 cells [1]; OVCA429, PARP inhibitors
  γH2AX intensity, dose dependence: did not show a dose dependence
PARP1 [2]
  PARP1 trapping: unable to reproduce the trapping observed with just 1 μM talazoparib
SKOV3 cells [3]; SKOV3
  ICS TNoP of γH2AX, dose dependence: failed to induce any correlative TNOP dose dependence
SKOV3 cells [3]; SKOV3, 1 μM veliparib, 24 hours
  Normalized γH2AX intensity: slight decrease
SKOV3 cells [3]; SKOV3, 100 μM
  ICS DA of γH2AX at 100 μM, compared to respective controls: higher value than 100 μM olaparib
SKOV3 cells [3]; SKOV3, highest dose
  Number of γH2AX foci (Imaris Spots) at the highest dose of PARP inhibitor: higher
PARP1 [4]
  ka (trap): association constant of PARPi for PARP1: 1.8e+06 M⁻¹ s⁻¹
  kd (trap): dissociation of PARPi from PARP1(-DNA): 0.005 s⁻¹
PARP1 [5]
  p.ka_trap: association of PARPi to PARP1, corrected rate: 0.18 M⁻¹ s⁻¹
HCC1937 cells
  53BP1-mApple condensate anisotropy vs control: not
PARP
  Apparent dissociation constant (koff) of PARPi in live cells: values similar to those previously determined in purified protein
HT1080 cells
  Condensate 53BP1-mApple intensity: lowered condensate 53BP1-mApple intensity
PARP1-DNA
  kd (rel PARPi): dissociation constant of PARPi-PARP1 from DNA: 0.00408 s⁻¹

## Cc1nc2c(O)cccc2c(=O)[nH]1 [NU 1025]
53BP1
  53BP1 DA vs. concentration regression (53BP1 recruitment): increased 53BP1 recruitment

## COS(C)(=O)=O [MMS, methyl methane-sulfonate]
OVCA429 cells [6]; OVCA429
  RPA1 Imaris Spots analysis, dose dependence: more modest increase with increasing MMS dose
OVCA429 cells [6]; OVCA429, 1 mM MMS
  RPA1 ICS DA, increase in aggregation: exceeding 2.5 × of control
OVCA429 cells [1]; OVCA429
  ICS DA of γH2AX, dose dependence: results similar to Spots analysis
  ICS TNoP of γH2AX, dose dependence: did not produce any MMS dose dependence
  Imaris Spots analysis of γH2AX, dose dependence: captured the MMS dose dependent DNA damage
OVCA429 cells [1]; OVCA429, 1 mM MMS
  γH2AX intensity: drastically increases
SKOV3 cells [7]
  RPA1 clustering (Spots analysis and ICS DA), dose dependence: dose dependent increase in RPA1 clustering
SKOV3 cells [3]; SKOV3
  ICS degree of aggregation (DA) of γH2AX, dose dependence: dose dependence
SKOV3 cells [3]; SKOV3, highest MMS dose, normalized to untreated control
  Normalized γH2AX intensity, increase: ~8 ×
OVCA429 cells [8]
  RAD51 ICS DA, dose dependence: dose dependent increases in aggregation
  RAD51 Imaris Spots analysis, dose dependence: did not show an overall MMS dose dependency
SKOV3 cells [9]; SKOV3
  RAD51 ICS DA, dose dependence: dose dependent increases in aggregation
  RAD51 Imaris Spots analysis, dose dependence: did not show an overall MMS dose dependency
SKOV3 cells [9]; SKOV3, 1 mM MMS
  RAD51 ICS DA, increase over control: 3 ×

## COc1ccc(C(=O)C2CCN(CC(=O)N(Cc3nc4c(c(=O)[nH]3)COCC4)CC3CC3)CC2)cc1 [NVP-TNKS656]
53BP1
  53BP1 DA vs. concentration regression (53BP1 recruitment): increased 53BP1 recruitment
